# Laboratory results: US20050282911A1, “Memantine for the prevention or reduction of suicidality and for treatment of major depression associated with suicidality” (priority 2003, published 2005)
# System: patients with major depressive disorder (MDD)
# Assay: Open-label, flexible dose, 12-week study of memantine in major depressive disorder (MEM-MD-09): efficacy
# Assay type: in vivo, human
# Set-up: CGI-I mean score: scale not given here
# Details: for CGI-I mean score / Mean Change from Baseline in CGI-S / Mean Change from Baseline in HAM-D / Mean Change from Baseline in MADRS: ITT Population; for Mean Change from Baseline in CGI-S: baseline 4.3; for Mean Change from Baseline in HAM-D: baseline 30.0; for Mean Change from Baseline in MADRS: baseline 31.9
# Description: The present study was a single-center, open-label, flexible dose, 12-week study designed to provide a preliminary assessment of the efficacy and safety of memantine in patients with major depressive disorder (MDD). In order to assess the efficacy of treatment on depressive symptomatology, the primary efficacy assessment was the Montgomery Depression Rating Scale (MADRS). Secondary efficacy assessments included the Hamilton Depression Rating Scale (HAM-D), the Clinical Global Impressions—Severity Scale (CGI-S), the Clinical Global Impressions—Improvement Scale (CGI-I), the Patient Global Evaluation (PGE), and the Quality of Life Scale (QOL).
# Study Design. The study was designed as a single-center, open-label, flexible dose 12-week study. Memantine was to be administered at 20 mg/day (10 mg b.i.d.) (titrated over a 4 week period), and, if warranted, up-titrated to a maximum of 40 mg/day (20 mg b.i.d.) (titrated in increments of 10 mg/day after Week 4).
# Entrance Criteria. Criteria for enrollment were as follows: (i) male or female outpatients between 18 and 80 years of age at screening; (ii) diagnosis of MDD consistent with DSM-IV; (iii) Montgomery Asberg Depression Rating Scale (MADRS) score of 22 or greater; and CGI severity score of 4 or greater. None of the patients had attempted suicide or were diagnosed as being at risk for committing suicide.
# Endpoints. The primary endpoint was improvement according to Montgomery Asberg Depression Rating Scale (MADRS). Secondary endpoints were improvements according to the Hamilton Depression Rating Scale (HAM-D), the Clinical Global Impressions-Severity Scale (CGI-S), the Clinical Global Impressions-Improvement Scale (CGI-I), Patient Global Evaluation (PGE), and Quality of Life Scale (QOL).
# MADRS. MADRS is either self-administered (MADRS-S) or interviewer administered evaluation of symptoms of depression in adults. MADRS evaluates ten areas of depressive symptomatology: apparent sadness, reported sadness, inner tension, reduced sleep, reduced appetite, concentration difficulties, lassitude, inability to feel, pessimistic thoughts, and suicidal thoughts. Each area is rated on a seven-point scale (0-6).
# MADRS was administered to each of the study participants at baseline, and weeks 1, 2, 3, 4, 6, 8, 10 and 12.
# HAM-D. HAM-D criteria were assessed at weeks 1, 2, 4, 8 and 12. HAM-D is a 24-item scale that evaluates depressed mood, vegetative and cognitive symptoms of depression, and comorbid anxiety symptoms. It provides ratings on current DSM-IV symptoms of depression, with the exceptions of hypersomnia, increased appetite, and concentration/indecision. There are several ways of analyzing HAM-D. According to one analysis, the first 17-items are rated on either a 5-point (0-4) or a 3-point (0-2) scale. In general, the 5-point scale items use a rating of 0=absent; 1=doubtful to mild; 2=mild to moderate; 3=moderate to severe; 4=very severe. A rating of 4 is usually reserved for extreme symptoms. The 3-point scale items used a rating of 0=absent; 1=probable or mild; 2=definite. The second analysis uses the same scale to rate the first 21 items, and the third analysis uses the scale to rate all 24 items. All three analyses were used in the present study and used statistically in the results.
# Response to medication (i.e., memantine) was defined as a reduction in the HAM-D 24 score of 50%, while remission was defined as a reduction in the HAM-D total score to 7 or less.
# DSM-IV. DSM-IV diagnostic criteria were determined at week 1 and again at the end of the study. […]
smiles,measurement,setting,value
"CC12CC3CC(C)(C1)CC(N)(C3)C2.Cl [Memantine, 1-amino-3,5-dimethyladamantane hydrochloride]",HAM-D ECDEU combination (cognitive disturbance factor),12 week period,improved
same,shift in severity ranking (CGI-S),"12 week period, with the exception of one patient",improved to “mildly depressed” or to “not depressed”
same,"HAM-D item 8, MADRS item 6 and DSM-IV criterion “h” (concentration, cognitive disturbance)",12 week treatment period,improved
same,"reduction in MADRS and HAM-D (17-, 21-, and 24-question versions) at endpoint","LOCF analyses, endpoint",approximately 18 points
same,CGI-I mean score,"Week 1, LOCF",2.7
same,Mean Change from Baseline in CGI-S,"Week 1, LOCF",−0.5
same,Mean Change from Baseline in HAM-D,"Week 1, LOCF",−6.1
same,Mean Change from Baseline in MADRS,"Week 1, LOCF",−7.9
same,CGI-I mean score,"Week 1, OC",2.7
same,Mean Change from Baseline in CGI-S,"Week 1, OC",−0.7
same,Mean Change from Baseline in HAM-D,"Week 1, OC",−8.2
same,Mean Change from Baseline in MADRS,"Week 1, OC",−10.5
same,CGI-I mean score,"Week 2, LOCF",2.8
same,Mean Change from Baseline in CGI-S,"Week 2, LOCF",−0.6
same,Mean Change from Baseline in HAM-D,"Week 2, LOCF",−11.8
same,Mean Change from Baseline in MADRS,"Week 2, LOCF",−12.1
same,CGI-I mean score,"Week 2, OC",2.8
same,Mean Change from Baseline in CGI-S,"Week 2, OC",−0.6
same,Mean Change from Baseline in HAM-D,"Week 2, OC",−11.8
same,Mean Change from Baseline in MADRS,"Week 2, OC",−12.1
same,CGI-I mean score,"Week 3, LOCF",2.4
same,Mean Change from Baseline in CGI-S,"Week 3, LOCF",−0.9
same,Mean Change from Baseline in MADRS,"Week 3, LOCF",−14.3
same,CGI-I mean score,"Week 3, OC",2.3
same,Mean Change from Baseline in CGI-S,"Week 3, OC",−1.0
same,Mean Change from Baseline in MADRS,"Week 3, OC",−14.7
same,CGI-I mean score,"Week 4, LOCF",2.3
same,Mean Change from Baseline in CGI-S,"Week 4, LOCF",−1.3
same,Mean Change from Baseline in HAM-D,"Week 4, LOCF",−16.8
same,Mean Change from Baseline in MADRS,"Week 4, LOCF",−15.6
same,CGI-I mean score,"Week 4, OC",2.1
same,Mean Change from Baseline in CGI-S,"Week 4, OC",−1.4
same,Mean Change from Baseline in HAM-D,"Week 4, OC",−20.8
same,Mean Change from Baseline in MADRS,"Week 4, OC",−17.0
same,CGI-I mean score,"Week 6, LOCF",2.4
same,Mean Change from Baseline in CGI-S,"Week 6, LOCF",−1.3
same,Mean Change from Baseline in MADRS,"Week 6, LOCF",−15.0
same,CGI-I mean score,"Week 6, OC",2.4
same,Mean Change from Baseline in CGI-S,"Week 6, OC",−1.3
same,Mean Change from Baseline in MADRS,"Week 6, OC",−15.0
same,CGI-I mean score,"Week 8, LOCF",2.0
same,Mean Change from Baseline in CGI-S,"Week 8, LOCF",−1.5
same,Mean Change from Baseline in HAM-D,"Week 8, LOCF",−16.8
same,Mean Change from Baseline in MADRS,"Week 8, LOCF",−18.6
same,CGI-I mean score,"Week 8, OC",1.9
same,Mean Change from Baseline in CGI-S,"Week 8, OC",−1.6
same,Mean Change from Baseline in HAM-D,"Week 8, OC",−19.0
same,Mean Change from Baseline in MADRS,"Week 8, OC",−20.4
same,CGI-I mean score,"Week 10, LOCF",2.1
same,Mean Change from Baseline in CGI-S,"Week 10, LOCF",−1.8
same,Mean Change from Baseline in MADRS,"Week 10, LOCF",−18.5
same,CGI-I mean score,"Week 10, OC",2.3
same,Mean Change from Baseline in CGI-S,"Week 10, OC",−1.6
same,Mean Change from Baseline in MADRS,"Week 10, OC",−16.7
same,CGI-I mean score,"Week 12, LOCF",2.1
same,Mean Change from Baseline in CGI-S,"Week 12, LOCF",−1.5
same,Mean Change from Baseline in HAM-D,"Week 12, LOCF",−17.8
same,Mean Change from Baseline in MADRS,"Week 12, LOCF",−18.5
same,CGI-I mean score,"Week 12, OC",2.3
same,Mean Change from Baseline in CGI-S,"Week 12, OC",−1.3
same,Mean Change from Baseline in HAM-D,"Week 12, OC",−16.0
same,Mean Change from Baseline in MADRS,"Week 12, OC",−16.7
same,overall impression of improvement (CGI-I),after 12 weeks,overall impression of improvement as measured using CGI-I in all patients with the exception of one
same,DSM-IV checklist: degree of symptomology,"all DSM-IV categories, end of study",reduction in the degree of symptomology in all DSM-IV categories
same,improvement on the primary and all secondary efficacy variables,"baseline to Week 12, LOCF and OC approaches",Significant improvement
same,onset of therapeutic benefit in the treatment of MDD,"eight patients with MDD, first assessment",1 week
same,patients considered “Very Much Improved” or “Much Improved” as measured by the CGI-I,end of Week 8,6 of 7
same,"patients responded to treatment, as measured by the MADRS and the HAM-D","end of Week 8, responder defined as 50% improvement from baseline",5 of the 7
same,DSM-IV checklist: categories of appetite and agitation/retardation,end of study,complete remission of symptoms in all patients
same,overall therapeutic response compared to citalopram and escitalopram,"memantine 20-40 mg/day, comparison with prior study SCT-MD-01",larger magnitude and faster onset of overall therapeutic response
same,"appetite items HAM-D 12, MADRS item 5 and DSM-IV item “c”",overall scores versus baseline,decrease from baseline
same,"HAM-D items 1, 2, 3 and 7",specific items chosen for analysis,positive change
same,score of item 3 of HAM-D (suicide),throughout visit 8,steady improvement
same,patients meeting criteria as CGI-I responders,week 12,62.5%
same,mean change from baseline to endpoint on the HAM-D,"week 12, printed without sign",about 17.8
same,mean change from baseline to endpoint on the MADRS,"week 12, printed without sign",about 18.5
same,"HAM-D item combinations for melancholy, anxiety, psychomotor retardation and insomnia",week 12 from baseline,improvement
